Data as given in patent US11866431B2, “Bicyclic compounds” (Vivace Therapeutics, Inc., priority 2018, dated 2024).
Where two headings read alike, the source gives them in different places.

Tested on: 8XTBD luciferase reporter (YAP reporter) in HEK293T cells
Test: YAP Reporter Assay
Assay type: cell-based
Settings: Homo sapiens, HEK-293T
Experimental: HEK293T cells stably transfected with 8XTBD luciferase reporter and pRLTK in 384-well plates were treated with the test compounds, starting from 3 μM (final concentration in assay plate), 1:3 dilution, and 10 points in quadruplicates. Post 24-hr incubation with compounds at 37° C. and 5% CO2, cells were lysed and 8XTBD-driven firefly luciferase and control TK-driven renilla luciferase activities were measured using Promega Dual-Luciferase Reporter Assay System.
Reagents: The reagents used for this study are: DMEM: Invitrogen #11960077, Dual-Glo Luciferase Assay System: Promega-E2980, Puromycin Dihydrochloride: Invitrogen-A1113803, 384-well plate: PerkinElmer-6007480, L-GLUTAMINE: Invitrogen-25030164, Hygromycin B: Invitrogen-10687010, and Penicillin-Streptomycin: Merk-TMS-AB2-C
Media: The media used for this assay were: Culture Medium: DMEM+1 ug/mL puromycin+200 ug/mL hygromycin (with 10% FBS+1 mM L-glutamine); and Assay Medium: DMEM (with 10% FBS+1 mM L-glutamine+1×P/S).
Cell Plating: The appropriate media was warmed at 37° C. by water bath: Culture Medium, Assay Medium, 1*D-PBS, 0.05% trypsin-EDTA. The cells were trypsinized after removing all media, then washed with 1*sterile D-PBS and then with 2 ml 0.05% trypsin-EDTA. The cells were then incubated at RT for one minute. Then 10 ml/75 cm2 flask Assay Medium was added to each flask. Using a 10 ml pipette, the cells were then gently resuspended in the media, until the clumps completely disappeared. The cells were then transferred into 50 ml centrifuge tubes and were centrifuged at 800 rpm for 5 mins. The medium was removed and the cells were resuspended with Assay Medium. An aliquot of cells was used to count the cell density (cells/ml). The cell suspension was then diluted with Assay Medium to a concentration of 6×10^4 cells/ml. 50 ul cells suspension was then plated to 384-well plate (PerkinElmer-6007480), 3×10^3 cells/well and the cells were incubated in an incubator at 37° C. 5% CO2.
Compound Treatment: In the afternoon (incubation of the plate with 3-4 hrs), the test compounds were added by Echo, starting from 3 uM (final concentration in the assay plate), 1:3 dilution, 10 points, quadruplicates. The plate was placed at 37° C. 5% CO2 incubator for 24 hrs.
Detection: The Dual-Glo Luciferase Reagent was prepared by transferring the contents of one bottle of Dual-Glo Luciferase Buffer to one bottle of Dual-Glo Luciferase Substrate to create the Dual-Glo Luciferase Reagent. Mixing was performed by inversion until the substrate was thoroughly dissolved. After mixing, the reagent was aliquoted into 15 ml tubes. In the afternoon (24 hrs post compound treatment), the DMEM+ medium in the 384 well plates were aspirated by Microplate Washer.
Measuring firefly luciferase activity: 20 ul Dual-Glo Luciferase Reagent was added to the 384-well plates. The plates were protected from light to prevent interference with the assay. The plates were shaken for 1 min followed centrifuging plates at 1000 rpm for 30 seconds. After waiting at least 10 minutes, the firefly luminescence was measured by Envision.
Measuring renilla luciferase activity: 20 ul Stop-Glo Reagent was added to the 384-well plates. The plates were shaken for 1 min and then centrifuged at 1000 rpm for 30 seconds. After waiting at least 10 minutes, the renilla luminescence was measured by Envision.
Compound IC50 and maximum inhibition on the firefly luciferase and renilla luciferase activities were reported separately.

[1] = HEK293T cells stably transfected with 8XTBD luciferase reporter and pRLTK, 24-hr incubation, top concentration 3 μM, read-out: Firefly Luciferase IC50

Structure (SMILES)	IC50 [1] [µM]	IC50 (24 h, read-out: Firefly Luciferase IC50 (μM)) [µM]
CC(C)NC(=O)c1ccc2c(-c3ccc(C(F)(F)F)cc3)ccnc2c1 [Compound 7, N-isopropyl-4-[4-(trifluoromethyl)phenyl]quinoline-7-carboxamide]	0.1 to 1	–
CCN1CC([C@@H](C)NC(=O)c2ccc3c(-c4ccc(C(F)(F)F)cc4)cccc3c2)C1 [Compound 148, N-[(1R)-1-(1-Ethylazetidin-3-yl)ethyl]-5-[4-(trifluoromethyl)phenyl]naphthalene-2-carboxamide]	0.1 to 1	–
C[C@@H](NC(=O)c1ccc2c(-c3ccc(C(F)(F)F)cc3)cccc2c1)c1cc(N(C)C)ccn1 [Compound 223, (R)—N-(1-(4-(dimethylamino)pyridin-2-yl)ethyl)-5-(4-(trifluoromethyl)phenyl)-2-naphthamide]	0.1 to 1	–
CC(NC(=O)c1ccc2c(-c3ccc(C(F)(F)F)cc3)cccc2c1)c1nsc(C(N)=O)n1 (stereo not shown) [Compound 201, 3-(1-(5-(4-(Trifluoromethyl)phenyl)-2-naphthamido)ethyl)-1,2,4-thiadiazole-5-carboxamide]	< 0.1	–
O=C(NCC/C=C/COc1ccon1)c1ccc2c(-c3ccc(C(F)(F)F)cc3)cccc2c1 [Compound 181, N-[(E)-5-isoxazol-3-yloxypent-3-enyl]-5-[4-(trifluoromethyl)phenyl]naphthalene-2-carboxamide]	< 0.1	–
CCN1CC([C@H](C)NC(=O)c2ccc3c(-c4ccc(C(F)(F)F)cc4)cccc3c2)C1 [Compound 149, N-[(1S)-1-(1-Ethylazetidin-3-yl)ethyl]-5-[4-(trifluoromethyl)phenyl]naphthalene-2-carboxamide]	0.1 to 1	–
CC(C)NC(=O)c1ccc2c(-c3ccc(C(F)(F)F)cc3)cn3ccnc3c2c1 [Compound 299, N-Isopropyl-6-(4-(trifluoromethyl)phenyl)imidazo[2,1-a]isoquinoline-9-carboxamide]	0.1 to 1	–
O=C(NCCCCl)c1ccc2c(-c3ccc(C(F)(F)F)cc3)cccc2c1 [Compound 265, N-(3-chloropropyl)-5-(4-(trifluoromethyl)phenyl)-2-naphthamide]	0.1 to 1	–
O=C(NC1(CO)CC1)c1ccc2c(-c3ccc(C(F)(F)F)cc3)cccc2c1 [Compound 257, N-(1-(hydroxymethyl)cyclopropyl)-5-(4-(trifluoromethyl)phenyl)-2-naphthamide]	< 0.1	–
O=C(NC(CO)CO)c1ccc2c(-c3ccc(C(F)(F)F)cc3)cccc2c1 [Compound 56, N-(1,3-dihydroxypropan-2-yl)-5-(4-(trifluoromethyl)phenyl)-2-naphthamide]	< 0.1	–
CC(=O)N1CC([C@H](C)NC(=O)c2ccc3c(-c4ccc(C(F)(F)F)cc4)cccc3c2)C1 [Compound 200, (S)—N-(1-(1-acetylazetidin-3-yl)ethyl)-5-(4-(trifluoromethyl)phenyl)-2-naphthamide]	0.1 to 1	–
C[C@@H](NC(=O)c1ccc2c(-c3ccc(C(F)(F)F)cc3)cccc2c1)c1nnn(C)n1 [Compound 279, (R)—N-(1-(2-methyl-2H-tetrazol-5-yl)ethyl)-5-(4-(trifluoromethyl)phenyl)-2-naphthamide]	< 0.1	–
CC(C)NC(=O)c1ccc2c(-c3ccc(C(F)(F)F)cc3)ccc([S+](C)[O-])c2c1 (stereo not shown) [Compound 27, N-isopropyl-8-methylsulfinyl-5-[4-(trifluoromethyl)phenyl]naphthalene-2-carboxamide]	0.1 to 1	–
CCOc1cc(-c2ccc(C(F)(F)F)cc2)c2ncc(C(=O)NC(C)C)cc2c1 [Compound 80, 6-ethoxy-N-isopropyl-8-(4-(trifluoromethyl)phenyl)quinoline-3-carboxamide]	–	< 0.1
CS(=O)(=O)/C=C/CCNC(=O)c1ccc2c(-c3ccc(C(F)(F)F)cc3)cccc2c1 [Compound 311, (E)-N-(4-(Methylsulfonyl)but-3-en-1-yl)-5-(4-(trifluoromethyl)phenyl)-2-naphthamide]	< 0.1	–
C[C@H](NC(=O)c1ccc2c(-c3ccc(C(F)(F)F)cc3)cccc2c1)c1cn(C)cn1 [Compound 195, (S)—N-(1-(1-methyl-1H-imidazol-4-yl)ethyl)-5-(4-(trifluoromethyl)phenyl)-2-naphthamide]	< 0.1	–

Structure (SMILES)	IC50 [1] [µM]	IC50 (24 h, read-out: Firefly Luciferase IC50 (μM)) [µM]
CC(C)NS(=O)(=O)c1ccc2c(-c3ccc(C(F)(F)F)cc3)cccc2c1 [Compound 6, N-isopropyl-5-(4-(trifluoromethyl)phenyl)naphthalene-2-sulfonamide]	0.1 to 1	–
COc1cc(-c2ccc(C(F)(F)F)cc2)c2ncc(C(=O)N[C@H](C)CO)cc2c1 [Compound 98, N-[(1R)-2-hydroxy-1-methyl-ethyl]-6-methoxy-8-[4-(trifluoromethyl)phenyl]quinoline-3-carboxamide]	< 0.1	–
CC(C)NC(=O)c1ccc2c(-c3ccc(C(F)(F)F)cc3)cc3ocnc3c2c1 [Compound 71, N-isopropyl-5-(4-(trifluoromethyl)phenyl)naphtho[1,2-d]oxazole-8-carboxamide]	< 0.1	–
COc1cc(-c2ccc(C(F)(F)F)cc2)c2ccc(C(=O)O)cc2c1 [Compound 322, 7-methoxy-5-(4-(trifluoromethyl)phenyl)-2-naphthoic Acid]	< 0.1	–
O=C(NCCC/C=C/COc1ccon1)c1ccc2c(-c3ccc(C(F)(F)F)cc3)cccc2c1 [Compound 198, N-[(E)-6-isoxazol-3-yloxyhex-4-enyl]-5-[4-(trifluoromethyl)phenyl]naphthalene-2-carboxamide]	< 0.1	–
COc1cc(-c2ccc(C(F)(F)F)cc2)c2ccc(C(=O)N[C@H](C)CO)cc2c1 [Compound 297, (R)—N-(1-Hydroxypropan-2-yl)-7-methoxy-5-(4-(trifluoromethyl)phenyl)-2-naphthamide]	< 0.1	–
Cc1nsc(CNC(=O)c2ccc3c(-c4ccc(C(F)(F)F)cc4)cccc3c2)n1 [Compound 221, N-((3-methyl-1,2,4-thiadiazol-5-yl)methyl)-5-(4-(trifluoromethyl)phenyl)-2-naphthamide]	< 0.1	–
NC(=O)/C=C/CCNC(=O)c1ccc2c(-c3ccc(C(F)(F)F)cc3)cccc2c1 [Compound 222, N-[(E)-5-amino-5-oxo-pent-3-enyl]-5-[4-(trifluoromethyl)phenyl]naphthalene-2-carboxamide]	< 0.1	–
O=C(NCc1ccncc1)c1ccc2c(-c3ccc(C(F)(F)F)cc3)cccc2c1 [Compound 229, N-(pyridin-4-ylmethyl)-5-(4-(trifluoromethyl)phenyl)-2-naphthamide]	< 0.1	–
O=C(O)c1ccc2c(-c3ccc(C(F)(F)F)cc3)cccc2c1 [Compound 330, 5-[4-(trifluoromethyl)phenyl]naphthalene-2-carboxylic Acid]	< 0.1	–
O=C(O)c1ccc2c(-c3ccc(C(F)(F)F)nc3)cccc2c1 [Compound 331, 5-(6-(trifluoromethyl)pyridin-3-yl)-2-naphthoic Acid]	0.1 to 1	–
CC(C)NC(=O)c1ccc2c(-c3ccc(C(F)(F)F)cc3)cn(C)c(=O)c2c1 [Compound 26, N-isopropyl-2-methyl-1-oxo-4-(4-(trifluoromethyl)phenyl)-1,2-dihydroisoquinoline-7-carboxamide]	< 0.1	–
CC(C)NC(=O)c1ccc2c(-c3ccc(C(F)(F)F)cc3)ccc(Br)c2c1 [Compound 8, 8-bromo-N-isopropyl-5-(4-(trifluoromethyl)phenyl)-2-naphthamide]	< 0.1	–
C[C@@H](NC(=O)c1cnc2c(-c3ccc(C(F)(F)F)cc3)cccc2c1)C1CN(CCF)C1 [Compound 318, (R)—N-(1-(1-(2-fluoroethyl)azetidin-3-yl)ethyl)-8-(4-(trifluoromethyl)phenyl)quinoline-3-carboxamide]	0.1 to 1	–
C[C@H](NC(=O)c1ccc2c(-c3ccc(C(F)(F)F)cc3)cccc2c1)c1cccc2ccc(=O)[nH]c12 [Compound 178, N-[(1S)-1-(2-oxo-1H-quinolin-8-yl)ethyl]-5-[4-(trifluoromethyl)phenyl]naphthalene-2-carboxamide]	1 to 3	–
